# According to patent US9708339B2, “1,3-benzothiazinone, sulfoxide, and sulfone compounds with electrophilic substituent” (priority 2014, dated 2017):
# “Also recorded” adds a separate entry of the source. Read-outs that look alike come from different tables or passages of the source.
# Assays:
# H37Rv strain of Mtb = experiment: Microplate alamar blue assay (MABA), in vitro anti-TB activity in 7H12 and GAS media; type: cell-based, Mycobacterium tuberculosis; details: for MIC / percentage in brackets after MIC >1, 7H12 / percentage in brackets after MIC >1, GAS: H37Rv; for percentage in brackets after MIC >1, 7H12: 7H12 medium; for percentage in brackets after MIC >1, 7H12 / percentage in brackets after MIC >1, GAS: bracketed percentage not defined in the patent; for percentage in brackets after MIC >1, GAS: GAS medium; for activity against H37Rv strain of Mtb (in words): in vitro
# DprE1 = DprE1 (Mycobacterium tuberculosis, UniProt P9WJF0); details: cited from earlier work
# Chain of DprE1 (P9WJF0 whole entry): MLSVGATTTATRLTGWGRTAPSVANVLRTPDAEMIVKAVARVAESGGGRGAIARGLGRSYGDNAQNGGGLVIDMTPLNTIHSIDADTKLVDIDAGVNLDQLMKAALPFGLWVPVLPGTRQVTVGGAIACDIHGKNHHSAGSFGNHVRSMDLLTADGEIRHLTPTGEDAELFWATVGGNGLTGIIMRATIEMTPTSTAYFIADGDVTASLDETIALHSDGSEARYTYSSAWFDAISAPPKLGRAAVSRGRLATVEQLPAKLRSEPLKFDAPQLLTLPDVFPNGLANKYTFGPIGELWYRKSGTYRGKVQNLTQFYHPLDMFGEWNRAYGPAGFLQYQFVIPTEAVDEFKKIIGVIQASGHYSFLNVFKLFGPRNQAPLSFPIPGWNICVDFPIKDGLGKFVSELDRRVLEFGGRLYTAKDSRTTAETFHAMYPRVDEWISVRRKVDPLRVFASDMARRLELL
# [1] = 7H12 medium (7H9 plus casitone, palmitic acid, albumin and catalase), read-out: MABA:MIC 7H12
# [2] = GAS (glycerol-alanine-salts) medium, read-out: MABA:MIC GAS
# [3] = Mycobacterium tuberculosis, 7H12 medium (7H9 plus casitone, palmitic acid, albumin and catalase), read-out: MABA:MIC 7H12
# [4] = Mycobacterium tuberculosis, GAS (glycerol-alanine-salts) medium, read-out: MABA:MIC GAS
SMILES,MIC (H37Rv strain of Mtb; [1]) [µM],MIC (H37Rv strain of Mtb; [2]) [µM],MIC (H37Rv strain of Mtb; [3]) [µM],MIC (H37Rv strain of Mtb; [4]) [µM],also measured
"NNC(=O)c1ccncc1 [INH, reference compound]",0.1,0.03,,,
CC1COC2(CCN(c3nc(=O)c4cc(C(F)(F)F)ccc4s3)CC2)O1 (centres unmarked) [Compound 8],> 1,> 1,,,"percentage in brackets after MIC >1, 7H12 (H37Rv strain of Mtb): 87%; percentage in brackets after MIC >1, GAS (H37Rv strain of Mtb): 36%; activity against H37Rv strain of Mtb (in words) (H37Rv strain of Mtb): not significantly active; also recorded: reduced"
C[C@H]1COC2(CCN(c3nc(=O)c4cc(C(F)(F)F)cc(N)c4s3)CC2)O1 [Compound 6],> 1,> 1,,,"percentage in brackets after MIC >1, 7H12 (H37Rv strain of Mtb): 87%; percentage in brackets after MIC >1, GAS (H37Rv strain of Mtb): 0%"
C[C@H]1COC2(CCN(c3nc(=O)c4cc(C(F)(F)F)cc(N=[N+]=[N-])c4s3)CC2)O1 [Compound 3],,,0.47,0.46,activity against H37Rv strain of Mtb (in words) (H37Rv strain of Mtb): outstanding activity; also recorded: impressive activity; activity against H37Rv strain of Mtb (in words) (H37Rv strain of Mtb; listed as BTZ-N3): impressive activity
C[C@H]1COC2(CCN(c3nc(=O)c4cc(C(F)(F)F)cc(-n5cc(CN(C)C)nn5)c4s3)CC2)O1 [Compound 9],,,0.87,0.95,
O=c1nc(N2CCN(CC3CCCCC3)CC2)sc2c([N+](=O)[O-])cc(C(F)(F)F)cc12 [PBTZ169],,,,,mode of DprE1 inhibition (in words) (DprE1): suicide inhibitor
"C[C@H]1COC2(CCN(c3nc(=O)c4cc(C(F)(F)F)cc([N+](=O)[O-])c4s3)CC2)O1 [BTZ043, reference compound]",,,< 0.004,< 0.004,mode of DprE1 inhibition (in words) (DprE1): suicide inhibitor
"CO[C@H]1/C=C/O[C@@]2(C)Oc3c(C)c(O)c4c(O)c(c(/C=N/N5CCN(C)CC5)c(O)c4c3C2=O)NC(=O)/C(C)=C\C=C\[C@H](C)[C@H](O)[C@@H](C)[C@@H](O)[C@@H](C)[C@H](OC(C)=O)[C@@H]1C [Rifampin, reference compound]",,,0.05,0.04,
